Data as given in US4535083A, “Cleavage products of 4',6'-didesoxy-4'-thio-,6'-amino-hepturonic acid nucleosides” (Bayer Aktiengesellschaft, priority 1982, dated 1985).
≈ marks a conversion by molar mass, not a printed value.

Legend:
Experiment in all cases: in vitro agar dilution test (NCCLS), MIC
Assay type in all cases: cell-based
[1] = test system: E. coli Neumann; settings: Escherichia coli, inoculation density 10^4 per inoculation point
Description: (§1) In the in vitro agar dilution test according to the internationally customary test (American National Committee for Clinical Laboratory Standards=NCCLS), activity is found against the germs listed below.
(§2) The minimum inhibitory concentration (MIC) was determined by the agar dilution procedure, using an inoculator and an inoculation density of 10^4 per inoculation point. The MIC is the concentration at which no bacteria colonies grow.

[2] = test system: Staph. epid. 25185; settings: inoculation density 10^4 per inoculation point
Description: as §1, §2

[3] = test system: Klebs. 57 USA; settings: inoculation density 10^4 per inoculation point
Description: as §1, §2

[4] = test system: Serratia 16001; settings: inoculation density 10^4 per inoculation point
Description: as §1, §2

MIC [1] [mg/L]	MIC [2] [mg/L]	MIC [3] [mg/L]	MIC [4] [mg/L]	SMILES
32 (≈ 67.2 µM)	64 (≈ 134 µM)	4 (≈ 8.4 µM)	–	Cn1c(=NC(N)=O)ccn(C2SC(C(O)C(NC(=O)C(N)CO)C(=O)O)C(O)C2O)c1=O (stereo not shown) [1 X = NCONH2]
–	–	–	128 (≈ 295 µM)	Cn1c(=O)ccn(C2SC(C(O)C(NC(=O)C(N)CO)C(=O)O)C(O)C2O)c1=O (stereo not shown) [1 X = O]
